Experiments:
[1] = system: high affinity NP-specific IgG response; test: T-cell dependent NP-specific IgG response after NP-OVAL immunization, ELISA (Example 2); assay type: in vivo, mice; settings: 40 mg/kg/day via food admix from two days before NP-OVAL immunization until day 35, vs vehicle
Method: 6 to 8-weeks-old female mice C57BL/6-Tg (hIgG1,k,l) were purchased from Charles River Laboratories (Germany) and housed at the animal facilities in room with air-conditioned under a 12 hours light/dark cycle in macrolon boxes with enriched environment and free access to water and food. The mice were injected at day −2 subcutaneously with 20 μg/mouse of NP-OVAL (4-Hydroxy-3-nitrophenylacetyl hapten conjugated to ovalbumin, Biosearch Technologies, USA, Batch No 060368) with adjuvant (Alhydrogel, InvivoGen #vac-alu-250) at the both flanks or without adjuvant at day 28. The dosage of (2S,4R)-4-[4-(1-methyl-1H-pyrazol-4-yl)-2-trifluoromethyl-benzenesulfonyl]-1-(1-trifluoromethyl-cyclopropanecarbonyl)-pyrrolidine-2-carboxylic acid (1-cyano-cyclopropyl)-amide consumption was 0 (vehicle), 1, 10, 40 mg/kg/day. […]
(§1) Nunc Maxisorp flat-bottom 96 well ELISA plates were coated with 100 μl per well of NP(4)-BSA (Biosearch Technologies N-5050L; 1 mg/mL) at 1 μg/mL in NaHCO3100 mM buffer and incubated overnight at +4° C. […] 100 μl of substrate P-nitrophenyl phosphate ready to use (Life Technologies, Cat no 002212) were added per well and after 10 min incubation at room temperature, the OD at 405 nm was read as an end-point measurement with a Versamax ELISA reader.

[2] = system: IgG response to murine surrogate FAP-OX40; test: ADA against murine surrogate FAP-OX40 in wild-type mice, ELISA (Example 6); assay type: in vivo, C57BL/6 mice; settings: 40 mg/kg/day via food admix from one week before first immunization until day 23
Method: 10-week-old female mice C57BL/6 were purchased from Charles River Laboratories (Germany) and housed at the animal facilities in room with air-conditioned under a 12 hours light/dark cycle in macrolon boxes with enriched environment and free access to water and food. 12.5 mg/kg of muFAP-OX40iMab (P1AD4396-005) were injected at day 1, 4 and 8 intravenously to the group 2 (n=10 mice) and at day 1, 4, 8, 11, 15, 18 and 22 to the group 3 (n=10 mice) respectively. The dosage of (2S,4R)-4-[4-(1-methyl-1H-pyrazol-4-yl)-2-trifluoromethyl-benzenesulfonyl]-1-(1-trifluoromethyl-cyclopropanecarbonyl)-pyrrolidine-2-carboxylic acid (1-cyano-cyclopropyl)-amide consumption was 40 mg/kg/day. […]
as §1, with “of FAP(28H1)-OX40(49B4) PGLALA (P1AD4523) or anti OX40 moIgG2a (P1AD4561) respectively” for “of NP(4)-BSA (Biosearch Technologies N-5050L; 1 mg/mL)”, “at 5” for “at 1”, “buffer” for “buffer and incubated”

Q: Which “NP-specific IgG levels (T-cell dependent IgG response against NP)” value [1] does the source give for `Cn1cc(-c2ccc(S(=O)(=O)[C@@H]3C[C@@H](C(=O)NC4(C#N)CC4)N(C(=O)C4(C(F)(F)F)CC4)C3)c(C(F)(F)F)c2)cn1` [cathepsin S inhibitor, (2S,4R)-4-[4-(1-methyl-1H-pyrazol-4-yl)-2-trifluoromethyl-benzenesulfonyl]-1-(1-trifluoromethyl-cyclopropanecarbonyl)-pyrrolidine-2-carboxylic acid (1-cyano-cyclopropyl)-amide] here?
A: significantly reduces NP-specific IgG levels

Q: What about the “NP-specific IgG levels (T-cell dependent IgG response against NP)” value ([1]; listed as cathepsin S antagonist) of the same compound?
A: effectively abrogating the T-cell dependent IgG response against NP

Q: And the “ADA specific to FAP (VHVL) domain of murine surrogate FAP-OX40” value [2]?
A: prevents ADA

Q: What about the “OX40-specific ADA to murine surrogate FAP-OX40” value [2] of the same compound?
A: prevents ADA
